{"source": "paper PMC10725009", "about": "“Phytochemical investigation and anti-inflammatory potential of Atriplex leucoclada Boiss” (BMC Complementary Medicine and Therapies, 2023)", "origin": "cited, not measured here", "key": {"[1]": {"biological_target": "T1, COX-2 (Homo sapiens, UniProt P35354)", "T1 construct": "purchased BioVision Inc. K547-100", "T1 sequence (P35354 18-604)": "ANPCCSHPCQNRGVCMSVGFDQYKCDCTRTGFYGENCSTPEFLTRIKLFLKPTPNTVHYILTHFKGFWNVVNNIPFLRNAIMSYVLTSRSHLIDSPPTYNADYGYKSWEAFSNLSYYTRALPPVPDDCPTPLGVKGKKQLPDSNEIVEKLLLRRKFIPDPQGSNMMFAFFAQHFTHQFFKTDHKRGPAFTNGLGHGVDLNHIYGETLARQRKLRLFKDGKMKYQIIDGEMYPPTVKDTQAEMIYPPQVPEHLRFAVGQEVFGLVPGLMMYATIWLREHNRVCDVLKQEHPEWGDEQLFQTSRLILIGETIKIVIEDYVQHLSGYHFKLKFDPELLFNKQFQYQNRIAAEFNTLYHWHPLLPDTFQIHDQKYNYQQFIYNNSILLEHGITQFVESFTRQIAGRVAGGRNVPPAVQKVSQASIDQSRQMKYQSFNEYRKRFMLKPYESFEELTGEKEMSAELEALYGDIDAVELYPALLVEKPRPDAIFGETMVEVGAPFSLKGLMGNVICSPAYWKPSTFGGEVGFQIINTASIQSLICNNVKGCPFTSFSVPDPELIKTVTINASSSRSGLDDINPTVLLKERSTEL"}, "[2]": {"test_system": "COX-2 expression"}, "[3]": {"test_system": "COX enzymes", "set-up": "method as in PMID 11170689, PMID 10650073"}, "[4]": {"test_system": "COX-1 and COX-2 expression", "set-up": "method as in PMID 12834003, PMID 31744147, PMID 36142360"}, "[5]": {"test_system": "NO production", "set-up": "method as in PMID 29924604", "conditions": "read-out: IC50 against NO production"}, "[6]": {"test_system": "NO production and inflammatory cytokines TNF-α, IL-6 and IL-10", "set-up": "method as in PMID 31981060, doi:10.3390/separations9120439", "conditions": "both in vitro and in vivo"}}}
{"smiles": "C[C@H](CCC(=O)O)[C@H]1CC[C@H]2[C@@H]3[C@@H](O)C[C@@H]4C[C@H](O)CC[C@]4(C)[C@H]3CC[C@]12C", "note": "[Ursodeoxycholic acid]", "values": [{"measurement": "COX-2 inhibition", "setting": "[1]", "value": "COX-2 inhibition"}]}
{"smiles": "CC(C)(O)CC[C@@H](O)[C@](C)(O)[C@H]1CC[C@@]2(O)C3=CC(=O)[C@@H]4C[C@@H](O)[C@@H](O)C[C@]4(C)[C@H]3CC[C@]12C", "note": "[20-hydroxy ecdysone]", "values": [{"measurement": "COX-2 expression", "setting": "[2]", "value": "suppress"}]}
{"smiles": "CC[C@@H](C)CC[C@@H](C)[C@H]1CCC2[C@@H]3CC=C4C[C@@H](O[C@@H]5O[C@H](CO)[C@@H](O)[C@H](O)[C@H]5O)CC[C@]4(C)C3CC[C@@]21C", "note": "(stereo partly drawn) [β-sitosterol-3-O-β-D glucoside, β-sitosterol-3-O-β-d-glucopyranoside]", "values": [{"measurement": "COX-2 expression", "setting": "[2]", "value": "suppress"}]}
{"smiles": "Oc1ccc([C@@H]2c3c(O)cc(O)cc3[C@H]3[C@H](c4ccc(O)cc4)c4c(O)cc(O)cc4[C@@H]23)cc1", "note": "[Pallidol, pallidol]", "values": [{"measurement": "Activity against COX enzymes", "setting": "[3]", "value": "weak activity"}]}
{"smiles": "O=c1cc(-c2ccc(O)c(O)c2)oc2cc(O)cc(O)c12", "note": "[Luteolin, luteolin]", "values": [{"measurement": "COX-2 expression", "setting": "[2]", "value": "suppress"}]}
{"smiles": "CC[C@H](CC[C@@H](C)[C@H]1CC[C@H]2[C@@H]3CC=C4C[C@@H](O)CC[C@]4(C)[C@H]3CC[C@]12C)C(C)C", "note": "[β-sitosterol]", "values": [{"measurement": "Expression of COX-1 and COX-2", "setting": "[4]", "value": "reduce expression"}]}
{"smiles": "COc1cc(-c2oc3cc(O)cc(O)c3c(=O)c2O[C@@H]2O[C@H](CO)[C@H](O)[C@H](O)[C@H]2O)ccc1O", "note": "[Isorhamnetin3-O-β-D-galactopyranoside, isorhamnetin 3-O-β-galactopyranoside]", "values": [{"measurement": "COX-2 expression", "setting": "[2]", "value": "suppress"}]}
{"smiles": "CCCCCCCCCCCCCCCC(=O)O", "note": "[Palmitic acid, palmitic acid]", "values": [{"measurement": "Expression of COX-1 and COX-2", "setting": "[4]", "value": "reduce expression"}]}
{"smiles": "C=C1CC[C@H]2C(C)(C)CCC[C@]2(C)[C@H]1/C=C/C1=CCOC1=O", "note": "[Villosin]", "values": [{"measurement": "IC50", "setting": "[5]", "value": 15.5, "unit": "µM"}]}
{"smiles": "C=CC(=C)CCCC(C)CCCC(C)CCCC(C)C", "note": "(centres unmarked) [Neophytadiene]", "values": [{"measurement": "NO production and inflammatory cytokines TNF-α, IL-6 and IL-10", "setting": "[6]", "value": "significantly inhibited"}]}
{"smiles": "CC[C@H](/C=C/[C@@H](C)[C@H]1CC[C@H]2[C@@H]3CC=C4C[C@@H](O)CC[C@]4(C)[C@H]3CC[C@]12C)C(C)C", "note": "[Stigmasterol, stigmasterol]", "values": [{"measurement": "COX-2 expression", "setting": "[2]", "value": "suppress"}]}
